Data reported in publication doi:10.1101/2025.08.05.668571v1, “Preliminary Study on the Mechanisms of Cytokinin and Its Receptor Binding Diversity” (biorxiv, 2025).

Target: T1, AHK4^CD (6×His-AHK4^CD-GFP) (Arabidopsis thaliana, UniProt Q9C5U0)
T1 construct: extracellular CHASE domain, residues 126-395; N-terminal 6×His via linker, C-terminal GFP, tags kept; pRSF-Duet, E. coli Rosetta (BL21), Ni-NTA
T1 sequence (Q9C5U0 149-418): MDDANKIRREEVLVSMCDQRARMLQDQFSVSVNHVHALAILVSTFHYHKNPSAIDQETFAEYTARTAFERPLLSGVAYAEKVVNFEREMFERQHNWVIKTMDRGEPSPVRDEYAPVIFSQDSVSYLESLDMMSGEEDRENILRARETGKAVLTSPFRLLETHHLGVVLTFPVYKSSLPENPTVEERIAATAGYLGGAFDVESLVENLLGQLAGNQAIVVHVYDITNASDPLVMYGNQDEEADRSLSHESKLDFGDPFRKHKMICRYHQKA
Test: microscale thermophoresis (MST), GFP-tagged target
Format: binding

Row | Kd | SMILES
1 | 27.7 ± 20.7 nM | c1ccc(CNc2ncnc3nc[nH]c23)cc1 [6-BA]
2 | 540 ± 262 nM | CC(C)=CCNc1ncnc2nc[nH]c12 [2iP]
